The term ED50 denotes the dose at which the effect has come halfway, by size or by number of responders. A lower ED50 goes with greater potency.

Bounds are passed on as bounds.

The subject of this assay is hind paw edema induced by carrageenin in the rat. Kind of assay: hind paw edema induced by carrageenin in the rat (anti-inflammatory activity, oral). The assay is classed as in vivo, rat (male, Sprague-Dawley). To be noted: oral intubation 1 h before carrageenin, foot volume 3 h later, ED50 = dose in which edema formation is inhibited by 25 percent or more in 50 percent of the rats vs. mean of controls. The protocol:
The procedure described below (Winters et al, Proc. Soc., Exp. Biol. Med., 111, 544, 1962) was used to establish the effectiveness of these compounds in the hind paw edema induced by carrageenin in the rat.
Male rats of the Sprague-Dawley strain (Charles River Laboratories) weighing 100 ± 20 grams were used for this study. Six animals were used for each drug dose. The drug was suspended in 1 percent aqueous solution of gum acacia, and each rat received 10 ml/kg of the appropriate concentration of drug suspension by oral intubation; controls were given a similar volume of the vehicle. One hour later, edema in the right hind paw was induced by the subplantar injection of 0.05 ml. of 1 percent calcium carrageenin dissolved in 0.15N sodium chloride. The volume of the foot was determined immediately and again 3 hours later. The difference was recorded as edema volume. Foot volume was measured by immersion of the foot in water at the level of the lateral malleolus, and determining the volume of water displaced by the foot. The ED50 may be defined as the dose in which edema formation is inhibited by 25 percent or more in 50 percent of the rats when compared to the mean value of the controls.
In the case of `O=C1c2cc(Cl)ccc2OC2CCCON12` (stereo not drawn) [Example 1, 8-chloro-2,3,4,4a-tetrahydro-10H-1,2-oxazino (3,2-b)(1,3)benzoxazin-10-one], it took a dose of 100 ± 27 mg/kg to reach the 50% effect level (ED50).

Turning to `O=C1c2ccccc2OC2CCCON12` (stereo not drawn) [Example 2, 2,3,4,4a-tetrahydro-10H-1,2-oxazino(3,2-b) (1,3)benzoxazin-10-one], it took a dose of 65 ± 22 mg/kg to reach the 50% effect level (ED50).

For the compound `Cc1ccc2c(c1)C(=O)N1OCCCC1O2` (stereo not drawn) [Example 3, 8-methyl-2,3,4,4a-tetrahydro-10H-1,2oxazino (3,2-b)(1,3)benzoxazine-10-one], the ED50 was over 300 mg/kg.

In turn, `CC1CCC2Oc3ccc(Cl)cc3C(=O)N2O1` (stereo not drawn) [Example 4, 8-chloro-2-methyl-2,3,4,4a-tetrahydro-10H-1,2-oxazino(3,2-b)(1,3)benzoxazin-10-one] came in with an ED50 of 270 ± 185 mg/kg.

Turning to `CC1CON2C(=O)c3cc(Cl)ccc3OC2C1` (stereo not drawn) [Example 5, 8-chloro-3-methyl-2,3,4,4a-tetrahydro-10H-1,2-oxazino(3,2-b)(1,3)benzoxazin-10-one], the ED50 worked out at 160 ± 73 mg/kg.

On to `CC1CCON2C(=O)c3cc(Cl)ccc3OC12` (stereo not drawn) [Example 6, 8-chloro-4-methyl-2,3,4,4a-tetrahydro-10H-1,2-oxazino(3,2-b)(1,3)benzoxazin-10-one], for which the 50% effect level (ED50) was put at a dose of 195 ± 96 mg/kg.

Source of the values: US4024139A, “2,3,4,4A-Tetrahydro-10H-1,2-oxazino[3,2-b](1,3)benzoxazin-10-ones” (Carter-Wallace, Inc., priority 1972, dated 1977).
